Patent US8101761B2, “(E)-N-{3-[1-(8-fluoro-11H-10-OXA-1-AZA-dibenzo [A,D] cyclohepten-5ylidene)-propyl]-phenyl}-methanesulfonamide as glucocorticoid receptor modulator for the treatment of rheumatoid arthritis” (Eli Lilly and Company, priority 2008, dated 2012)

Biological target: T1, human mineralocorticoid receptor (MR) (Homo sapiens, UniProt P08235)
T1 construct: expressed in transfected cells; host or cells: HEK293, transient transfection, CMV promoter plasmid
T1 sequence (P08235 1-984): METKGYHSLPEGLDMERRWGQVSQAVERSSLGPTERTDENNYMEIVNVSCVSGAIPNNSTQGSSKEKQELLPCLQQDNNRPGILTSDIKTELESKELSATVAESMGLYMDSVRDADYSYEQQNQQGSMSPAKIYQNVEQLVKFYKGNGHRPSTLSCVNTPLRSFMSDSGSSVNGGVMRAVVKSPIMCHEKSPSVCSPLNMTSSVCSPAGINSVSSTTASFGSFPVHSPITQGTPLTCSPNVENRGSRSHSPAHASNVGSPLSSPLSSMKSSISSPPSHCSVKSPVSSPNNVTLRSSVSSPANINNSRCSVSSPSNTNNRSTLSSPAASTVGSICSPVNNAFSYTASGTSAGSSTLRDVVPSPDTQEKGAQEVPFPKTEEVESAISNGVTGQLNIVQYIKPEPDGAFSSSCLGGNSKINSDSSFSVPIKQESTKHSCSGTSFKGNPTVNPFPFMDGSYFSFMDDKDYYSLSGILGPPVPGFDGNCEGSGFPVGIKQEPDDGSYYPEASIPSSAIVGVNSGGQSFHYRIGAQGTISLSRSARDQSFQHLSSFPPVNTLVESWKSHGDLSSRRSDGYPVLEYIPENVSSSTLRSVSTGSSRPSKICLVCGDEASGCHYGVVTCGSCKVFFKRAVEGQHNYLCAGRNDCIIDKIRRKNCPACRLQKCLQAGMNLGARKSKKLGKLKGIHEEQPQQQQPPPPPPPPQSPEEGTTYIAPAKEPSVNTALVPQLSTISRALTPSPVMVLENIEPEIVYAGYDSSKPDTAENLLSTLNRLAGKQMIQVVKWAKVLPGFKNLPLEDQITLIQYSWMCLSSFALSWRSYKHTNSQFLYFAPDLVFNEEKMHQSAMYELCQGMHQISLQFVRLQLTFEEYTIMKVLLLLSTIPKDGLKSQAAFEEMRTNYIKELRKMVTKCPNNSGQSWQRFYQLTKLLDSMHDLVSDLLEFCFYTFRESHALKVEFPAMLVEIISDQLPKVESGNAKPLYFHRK
Test: Nuclear hormone receptor functional modulation assay (GRE-luciferase reporter, HEK293), MR
Assay type: cell-based
Conditions: agonist mode, mean of n=4 or 5
Text: The solvents, reagents, and ligands employed in the functional assay are readily available from commercial sources, or can be prepared by one of ordinary skill in the art.
Human embryonic kidney HEK293 cells are transfected with steroid hormone receptor and reporter gene plasmids using Fugene™ transfection reagent. Briefly, the reporter plasmid containing two copies of probasin ARE and TK(thymidine kinase) promoter upstream of the luciferase reporter cDNA, is transfected into HEK293 cells with a plasmid constitutively expressing human androgen receptor (AR) using viral CMV(cytomegalovirus) promoter. The reporter plasmid containing two copies of GRE and TK promoter upstream of the luciferase reporter cDNA is transfected with a plasmid constitutively expressing either human glucocorticoid receptor (GR), human mineralocorticoid receptor (MR), or human progesterone receptor (PR) using viral CMV promoter. […] After 24-hours incubation with test compounds, cells are lysed and luciferase activity is determined using standard techniques.
Data are fitted to a four parameter-fit logistic curve fit to determine EC50 values. […] IC50 values may be determined similarly using antagonist mode assay data. Percent inhibitions may also be determined relative to the response in the presence of agonist alone, as described above.

- efficacy in activating transcription, MR (relative to 30 nM aldosterone): about 11%
- EC50 (read-out: EC50 in activating transcription, MR): > 10 µM
SMILES: CC/C(=C1\c2ccc(F)cc2OCc2ncccc21)c1cccc(NS(C)(=O)=O)c1 [Compound (I), (E)-N-{3-[1-(8-Fluoro-11H-10-oxa-1-aza-dibenzo[a,d]cyclohepten-5-ylidene)-propyl]-phenyl}-methanesulfonamide]
